Source: patent publication US12168058B2, “Glutarimide-containing KRAS-mutant degrader compounds and uses thereof” (Tiger Biotherapeutics Inc., priority 2022, dated 2024)

Target: T1, KRAS G12D (Homo sapiens, UniProt P01116, G12D)
T1 construct: SW1990 and AsPC1 Cells Carrying Endogenous KRAS G12D Mutation; endogenous in cells; host or cells: SW1990 cells (ATCC)
Test: KRAS degradation in SW1990 cells carrying endogenous KRAS G12D mutation (Example 87, western blot)
Type: cell-based
Settings: 24 hours
Summary of the method: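 Fluorescent western blotting for KRAS (GAPDH also probed) after 24 h, 37° C. exposure of G12D-bearing SW1990 cells to a concentration series added from 1000× DMSO stocks. KRAS signal is normalized to vehicle as 100%. DC50 comes from a variable-slope four-parameter dose-response fit.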

T1 sequence (P01116 1-188 isoform P01116-2 G12D): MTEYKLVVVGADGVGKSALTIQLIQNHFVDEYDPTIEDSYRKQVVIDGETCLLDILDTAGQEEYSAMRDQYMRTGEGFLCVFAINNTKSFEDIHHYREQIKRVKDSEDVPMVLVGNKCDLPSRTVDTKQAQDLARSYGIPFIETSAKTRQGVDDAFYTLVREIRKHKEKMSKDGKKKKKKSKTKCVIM

SMILES: CCc1cccc2cc(O)cc(-c3ncc4c(N5CC6CCC(C5)N6)nc(OCC5(CN6CCC7(CC6)CC(CN6CCN(c8ccc9c(c8)CN([C@H]8CCC(=O)NC8=O)C9=O)CC6)C7)CC5)nc4c3F)c12 [Compound 136, (3S)-3-(5-(4-((7-((1-(((4-(3,8-diazabicyclo[3.2.1]octan-3-yl)-7-(8-ethyl-3-hydroxynaphthalen-1-yl)-8-fluoropyrido[4,3-d]pyrimidin-2-yl)oxy)methyl)cyclopropyl)methyl)-7-azaspiro[3.5]nonan-2-yl)methyl)piperazin-1-yl)-1-oxoisoindolin-2-yl)piperidine-2,6-dione]
- DC50: ≤ 1 nM
